From patent US20150141448A1, “Topical Ophthalmological Pharmaceutical Composition containing Pazopanib” (BAYER HEALTHCARE LLC, priority 2012, published 2015)
Where a name gives a salt, the structure may show the parent alone.

Assay: Solubility in lipophilic vehicles
Format: physicochemical
Settings: lipophilic vehicles like liquid or light liquid paraffin

With `Cc1ccc(Nc2nccc(N(C)c3ccc4c(C)n(C)nc4c3)n2)cc1S(N)(=O)=O` [pazopanib hydrochloride, 5-[[4-[(2,3-Dimethyl-2H-indazol-6-yl)methylamino]-2-pyrimidinyl]amino]-2-methylbenzolsulfonamide] the “solubility in lipophilic vehicles” value was “very low”.
